Patent US9067908B2, “Polyphenolic bioprecursors” (RHODIA CHIMIE, priority 2005, dated 2015)
“Also recorded” adds a separate entry of the source. Where two headings read alike, the source gives them in different places.

What was measured:
[1] = system: Stratum corneum enzymatic extract
Description: (§1) Samples of Stratum corneum are taken with surgical sparadrap (type Blenderm 3M Health Care, St. Paul, Minn., USA). The buffers used in the bio-hydrolysis trials are: 50 mM Tris(tris[hydroxymethyl]aminomethane) pH 7.3 and pH 8; 50 mM Na-acetate pH 5.5; 50 mM MES (2-[N-morpholino]-ethanesulphonic) acid pH 6 and 50 mM phosphate pH 6.5.
(§2) The precursors are solubilised in acetonitrile at a concentration of 1 g/l. For the bio-hydrolysis trials 50 μl of substrate and 50 μl of acetonitrile in 900 μl of enzymatic extract in the buffer at a chosen pH are added. The reaction mixtures are incubated at 35° C. without stirring and shielded from the light. The evolution of the bio-hydrolysis is determined by HPLC (high-performance liquid chromatography) with reverse phase polarity. The controls are effected in the same solutions without enzymatic extracts of skin, in order to determine the chemical stability of the products.

[2] = system: Stratum corneum enzymatic extract; test: Bio-hydrolysis with the cutaneous enzymes obtained by tape stripping; conditions: for Bio-hydrolysis Rate (%): 35° C.
Description: as §1, §2

[3] = Solubility of precursor in the bio-hydrolysis medium; format: physicochemical
Description: Resveratrol trilipoate is obtained via lipoic acid chloride prepared in situ under argon at ambient temperature in dichloromethane. The acylation reaction leads to a mixture of the products of coupling (phenolic and recorcinic monolipoates, dilipoates and trilipoates). The trilipoates were obtained after chromatography on silica. The product was not characterised for reasons of insolubility. For the same reasons it cannot be bio-hydrolysed (see Table 1).

Structure (SMILES) | Active substance(s) released by bio-hydrolyse: Polyphenol (PP) [1] | Bio-hydrolysis Rate (%) [1] | Active substance(s) released by bio-hydrolyse: A [2] | Active substance(s) released by bio-hydrolyse: B [2] | Active substance(s) released by bio-hydrolyse: Polyphenol (PP) [2] | also measured
CCCCCC(=O)Oc1ccc(/C=C/c2cc(OC(C)=O)cc(OC(C)=O)c2)cc1 [Res(Ac)2-caproate, 3,5-resveratrol diacetate-4′-caproate] | Resveratrol | 95% | – | – | – | –
CC(=O)Oc1cc(OC(=O)CCC(=O)Oc2c(C)c(C)c3c(c2C)CCC(C)(CCCC(C)CCCC(C)CCCC(C)C)O3)c2c(=O)cc(-c3ccc(OC(C)=O)c(OC(C)=O)c3)oc2c1 (stereo not drawn) [Lut(Ac)3-succinate-Vit E, 7-acetoxy-2-(3,4-diacetoxyphenyl)-4-oxo-4H-chromen-5-yl 2,5,7,8-tetramethyl-2-(4,8,12-trimethyltridecyl)-3,4-dihydro-2H-chromen-6-yl succinate] | – | – | Acetate +; also recorded: Succinate | Vitamin E | Luteolin | Bio-hydrolysis Rate (%) ([2]; bio-hydrolysis time 5 h): 70%
CCCCCC(=O)Oc1ccc(/C=C/c2cc(OC(=O)CCCCC)cc(OC(=O)CCCCC)c2)cc1 [Res(caproate)3, 3,5,4′-resveratrol tricaproate, reference compound] | Resveratrol | 98% | – | – | – | Active substance(s) released by bio-hydrolyse: A [1]: Caproate
COc1cc(/C=C/C(=O)Oc2ccc(/C=C/c3cc(OC(C)=O)cc(OC(C)=O)c3)cc2)ccc1OC(C)=O [Res(Ac)2-ferulate(Ac), (E)-4-((E)-3,5-diacetoxystyryl)phenyl 3-(4-acetoxy-3-methoxyphenyl)acrylate] | – | – | Acetate | Ferulic acid | Resveratrol | Bio-hydrolysis Rate (%) ([2]; bio-hydrolysis time 6.5 h): 71%
CC(=O)Oc1cc(/C=C/c2ccc(OC(=O)CCCCC3CCSS3)cc2)cc(OC(C)=O)c1 (stereo not drawn) [Res(Ac)2-lipoate, (E)-4-(3,5-diacetoxystyryl)phenyl-5-(1,2-dithiolan-3-yl)pentanoate] | – | – | Acetate | Lipoate | lipoic acid; also recorded: Resveratrol + | Bio-hydrolysis Rate (%) ([2]; bio-hydrolysis time 48 h): 87%
O=C(CCCCC1CCSS1)Oc1ccc(/C=C/c2cc(OC(=O)CCCCC3CCSS3)cc(OC(=O)CCCCC3CCSS3)c2)cc1 (stereo not drawn) [Res(lipoate)3, 3,5,4′-resveratrol trilipoate] | – | – | – | – | – | Solubility of precursor in the medium [3]: insolubility
